Laboratory results from PubChem BioAssay AID1850 (Southern Research Specialized Biocontainment Screening …, 2009).
pIC50: −log10 of the molar value. Where “and” joins values, the source holds several entries; their conditions need not be identical. Equal entries are not always repeated.

Each molecule was assayed on Salmonella Typhi PhoP-promoter GFP reporter, fluorescence, 4 h (assay: PhoP regulon inhibitors, Salmonella typhi PhoP promoter GFP reporter, confirmatory (AID 1850)).
With `Cc1cc(C(C)(C)CC(C)(C)C)ccc1OCCOCC[N+](C)(C)Cc1ccccc1` the pIC50 was 4.74.
`O=C(Cc1ccccc1)NNC(=S)NC(=O)c1cccs1` was tested, and the pIC50 was 4.33.
In the case of `C/C(=N\Nc1ccc2nncn2n1)c1ccccn1`, the pIC50 was 4.18.
`CN(C)CCCN1c2ccccc2Sc2ccccc21` gave a pIC50 of 3.94.
In the case of `NC(N)=N/N=C/c1ccc(OCc2ccc(Cl)cc2Cl)cc1`, the pIC50 was 4.74.
`Nc1ncn([C@@H]2O[C@H](CO)[C@@H](O)[C@H]2O)c(=O)n1` gave a pIC50 of 4.37.
Molecule `N#C/C(=C\c1ccc[nH]1)C(=O)NC1CC1` has a pIC50 of 4.13.
Work on `OC(CNCCc1ccc(Cl)cc1Cl)COc1ccccc1` (centres undefined) yielded a pIC50 of 4.15.
Work on `Oc1c(CN2CCOCC2)cc(COCc2ccccc2)c2cccnc12` yielded a pIC50 of 4.41.
Work on `Oc1ccc(Cl)cc1Cc1cc(Cl)ccc1O` yielded a pIC50 of 4.47.
`CC(NCc1ccccc1O)C12CC3CC(CC(C3)C1)C2` (centres undefined) was tested, and the pIC50 was 4.47.
`Fc1ccc(CCNCc2ccc(Cl)c(Cl)c2)cc1` was tested, and the pIC50 was 4.43.
`O=C(N/N=C/c1cc(Br)ccc1O)c1ccncc1` was tested, and the pIC50 was 4.46.
Work on `CC1CC(C)CN(CCOc2ccc(Cl)cc2Cl)C1` (centres undefined) yielded a pIC50 of 3.95.
Work on `CCOC(=O)N1CCN(CCC(=O)c2ccc(Cl)cc2)CC1` yielded a pIC50 of 4.11.
Work on `CN(C)CCCNc1cc(C(C)(C)C)nc2c(-c3ccc(Cl)cc3)cnn12` yielded a pIC50 of 4.72.
Work on `CC(C(=O)NC1C=CS(=O)(=O)C1)N1C(=O)/C(=C/c2ccc(Cl)cc2)SC1=S` (centres undefined) yielded a pIC50 of 4.49.
For `O=C(Nc1ccncc1)Nc1ccc(Cl)cc1`, the pIC50 was 4.48.
`Cc1ccc(O)c(Nc2c3ccccc3nc3ccccc23)c1` showed a pIC50 of 4.56.
`O=C(N/N=C/c1ccccc1O)C1SCCCS1` showed a pIC50 of 4.06.
For `Cc1cc([N+](=O)[O-])nn1CC(=O)N/N=C/c1ccccc1O`, the pIC50 was 4.33.
`CCCCCCCCCCCCCCCC[n+]1cccc(C(=O)N(CC)CC)c1` was tested, and the pIC50 was 4.38.
Work on `CCCCCCCCCCCCCCCCn1cc[n+](C)c1` yielded a pIC50 of 4.51.
With `CCC(O)(CC)C(=O)N/N=C/c1cc(Br)cc(Br)c1O` the pIC50 was 4.11.
With `Cc1ccc(C[n+]2c(-c3ccc(C)cc3)cc(-c3ccc(C)cc3)cc2-c2ccc(C)cc2)cc1` the pIC50 was 4.70.
Work on `O=C(Cn1nc(CNc2ccc(Cl)cc2)[n+]2c1CCCCC2)c1ccc(Br)cc1` yielded a pIC50 of 4.29.
Work on `CCOc1ccc(Nc2nc(N)c3ccccc3n2)cc1` yielded a pIC50 of 4.71.
With `c1cnc2c(c1)ccc1cccnc12` the pIC50 was 4.31 and 4.41.
In the case of `Cc1cc(C)c2nc(C)cc(N/N=C/c3ccc(O)cc3)c2c1`, the pIC50 was 4.44.
Molecule `O=C(CCN1CCN(c2ccccc2F)CC1)c1ccc(Br)cc1` has a pIC50 of 4.41.
Molecule `CC(=O)c1cc(O)c2ccccc2c1O` has a pIC50 of 3.95.
`O=C(C[n+]1cc(-c2ccccc2)n2c1CCC2)Nc1nc(-c2ccc(F)cc2)cs1` showed a pIC50 of 4.41.
`COC(=O)C(C)NC(=S)N1CCN(c2c(F)cc3c(=O)c(C(=O)O)cn(C4CC4)c3c2OC)CC1C` (centres undefined) gave a pIC50 of 4.77.
`CCC(C)N1CCC2(CC1)N=c1c(c3c4c5c(C)c(O)c3c(O)c1=NC(=O)C(C)=CC=C[C@H](C)[C@H](O)[C@@H](C)[C@@H](O)[C@@H](C)[C@H](OC(C)=O)[C@H](C)[C@@H](OC)C=CO[C@@](C)(O5)C4=O)N2` (some centres undefined) was tested, and the pIC50 was 5.60.
`Oc1ccc(CN2CCCc3ccccc32)c2cccnc12` gave a pIC50 of 4.08.
For `Nc1nc(N)c(Cc2ccc(Cl)cc2Cl)c(N)n1`, the pIC50 was 4.02.
`CCCCc1ccc(N/C(N)=N/c2nc(C)cc(C)n2)cc1` showed a pIC50 of 4.11.
`CCN1/C(=C/C(C)=C/c2sc3ccccc3[n+]2CC)Sc2ccccc21` showed a pIC50 of 5.31.
Work on `Cc1cc(OCCCCCN2CCCC2)ccc1Cl` yielded a pIC50 of 3.91.
`O=C(Oc1ccccc1)c1cc2ccccc2o1` showed a pIC50 of 4.42.
Work on `COc1ccc(C(=O)NC(=S)NNC(=O)c2cnccn2)cc1` yielded a pIC50 of 4.03.
`COc1ccc2[nH]c3c(C)c4ccncc4c(C)c3c2c1` was tested, and the pIC50 was 4.69.
`CCCCCC(=O)NC(=S)NNC(=O)CC` showed a pIC50 of 3.88.
Work on `NC[C@@H]1O[C@H](C23CC4CC(CC(C4)C2)C3)Cc2c1ccc(O)c2O` yielded a pIC50 of 4.30.
`COC(=O)C1C(O)C(C)C(O)C(C)(O)/C=C\C=C(/C)C(=O)Nc2c(C)c(OC(C)=O)c3c(c2O)C(=O)C(C)=C2OCOC(=C23)/C(C)=C/C(C)(O)C(O)C(C)C1O` (centres undefined) showed a pIC50 of 4.56.
`c1ccc(-c2nc3ccccc3[nH]2)cc1` was tested, and the pIC50 was 4.32.
`C=C1c2c(Cl)ccc(O)c2C(O)=C2C(=O)[C@]3(O)C(O)=C(C(N)=O)C(=O)[C@@H](N(C)C)[C@@H]3[C@@H](O)C12` (some centres undefined) was tested, and the pIC50 was 6.10.
`C#CCOCCOCCOCCNc1nc(N2CCN(C(=O)CCCCCCCCCCNC(=O)[C@H](CCCCN)n3cc(CCO)nn3)CC2)nc(N2CCN(C(=O)CCCCCCCCCCNC(=O)[C@H](CCCN=C(N)N)n3cc(C[C@@H](C)CC)nn3)CC2)n1` gave a pIC50 of 4.46.
For `C(=N/Nc1nccs1)/c1cccnc1`, the pIC50 was 4.33.
With `C1=C(CCNc2ncnc3c2[nH]c2ccccc23)CCCC1` the pIC50 was 4.51.
Work on `O=C(Nc1ccc(Cl)cc1)N1CCCN(Cc2ccccc2F)C1` yielded a pIC50 of 4.46.
`O=[N+]([O-])c1cc([N+](=O)[O-])c2cccnc2c1Oc1ccccc1O` was tested, and the pIC50 was 4.09.
`Nc1ncncc1-c1ccc(Cl)cc1` showed a pIC50 of 3.84.
For `C[C@H]1c2cccc(O)c2C(O)=C2C(=O)[C@]3(O)C(O)=C(C(N)=O)C(=O)[C@@H](N(C)C)[C@@H]3[C@@H](O)[C@@H]21`, the pIC50 was 5.40.
Molecule `CCCOc1ccc(C(=O)NNC(=S)NC(=O)c2ccco2)cc1` has a pIC50 of 4.13.
Work on `CO[C@H]1/C=C/O[C@@]2(C)Oc3c(C)c(O)c4c(O)c(c(C=NN5CCN(C)CC5)c(O)c4c3C2=O)NC(=O)/C(C)=C\C=C\[C@H](C)[C@H](O)[C@@H](C)[C@@H](O)[C@@H](C)[C@H](OC(C)=O)[C@@H]1C` yielded a pIC50 of 5.01.
In the case of `Fc1ccc(Nc2nc(NCc3ccco3)c3ccccc3n2)cc1`, the pIC50 was 5.42.
In the case of `O=S1(=O)CC=C(CSC(=S)NC2CCS(=O)(=O)C2)C1` (centres undefined), the pIC50 was 4.11.
With `CO[C@H]1C=CO[C@@]2(C)Oc3c(C)c(O)c4c(O)c(c(C=NN5CCN(C)CC5)c(O)c4c3C2=O)NC(=O)C(C)=CC=C[C@H](C)[C@H](O)[C@@H](C)[C@@H](O)[C@@H](C)[C@H](OC(C)=O)[C@@H]1C` the pIC50 was 4.68.
`CN1CCN(c2ccc(NC(=O)c3ccc(-c4ccc(Br)cc4)o3)cc2)CC1` gave a pIC50 of 4.54.
For `O=C(CC1NCCc2ccccc21)Nc1ccc(Oc2ccccc2)cc1` (centres undefined), the pIC50 was 4.33.
Work on `CCCCCCCCCCCCCCCC[N+](C)(C)CC` yielded a pIC50 of 4.73.
With `O=C(Nc1cccc([N+](=O)[O-])c1)Nc1cccs1` the pIC50 was 4.61.
Molecule `c1ccc2c(c1)OC(CCCN1CCCCC1)c1ccccc1S2` (centres undefined) has a pIC50 of 4.02.
`O=C(Nc1nnc(-c2cccs2)o1)c1cccc(F)c1` gave a pIC50 of 4.47.
`Oc1c(Br)cc(Br)cc1C=Nc1ccc2[nH]ncc2c1` was tested, and the pIC50 was 4.56.
`Cc1cc2oc(=O)cc(CN3CCN(C/C=C/c4ccccc4)CC3)c2cc1O` showed a pIC50 of 4.09.
In the case of `COc1ccc(OCC(O)CNc2ccc(Br)cc2)cc1` (centres undefined), the pIC50 was 5.24.
With `CC[C@@H](C)[C@H](CNC)NC[C@@H](Cc1cccc2ccccc12)NCCc1cccc(C(F)(F)F)c1` the pIC50 was 4.70.
Molecule `C#CCOCCOCCOCCNc1nc(N2CCN(C(=O)CCCCCCCCCCNC(=O)[C@H](CCCCN)n3cc(CCO)nn3)CC2)nc(N2CCN(C(=O)CCCCCCCCCCNC(=O)[C@H](CCCCN)n3cc(CCO)nn3)CC2)n1` has a pIC50 of 4.22.
`Cc1ccc(Nc2nc(NCCO)c3ccccc3n2)cc1C` gave a pIC50 of 4.73.
Work on `O[C@@H](c1cc(C(F)(F)F)nc2c(C(F)(F)F)cccc12)[C@H]1CCCCN1` yielded a pIC50 of 4.40.
Molecule `CC1CCC(C(C)C)C(OC(=O)Cn2c(COc3ccccc3)[n+](C)c3ccccc32)C1` (centres undefined) has a pIC50 of 4.45.
In the case of `CC(=O)Nc1ccc(S(=O)(=O)NNc2cccc(C)c2)cc1`, the pIC50 was 4.41.
Molecule `CCOc1ccc(Nc2nc(NCC3CCCO3)c3ccccc3n2)cc1` (centres undefined) has a pIC50 of 5.48.
`CN1CCc2c(sc(NC(=O)c3ccc([N+](=O)[O-])o3)c2C(N)=O)C1` showed a pIC50 of 4.73.
In the case of `Cc1ccc2c(c1)N/C(=C(\C=C(/Cl)[N+](=O)[O-])[N+](=O)[O-])N2`, the pIC50 was 4.00.
In the case of `OC1(c2ccc(Cl)cc2)CCN(Cc2c[nH]c3ccccc23)CC1`, the pIC50 was 4.16.
With `O=C(Cn1nc(CNc2ccc(Br)cc2)[n+]2c1CCCCC2)c1ccc([N+](=O)[O-])cc1` the pIC50 was 4.40.
`O=C(/C=C/c1ccccc1)c1cc(Br)ccc(=O)c1O` was tested, and the pIC50 was 4.61.
`O=[N+]([O-])c1ccc(/C=[N+](\[O-])CCO)o1` was tested, and the pIC50 was 4.22.
For `CN(C)CCN(C(=O)C1=COCCO1)c1nc2ccc(Cl)cc2s1`, the pIC50 was 3.87.
Work on `CSc1ccc2c(c1)C(N1CCN(C)CC1)Cc1ccc(F)cc1S2` (centres undefined) yielded a pIC50 of 4.43.
For `Nc1cc(Cl)c2nonc2c1[N+](=O)[O-]`, the pIC50 was 4.42.
Molecule `CN1CCN(C2Cc3cc(Cl)ccc3Sc3cc(F)ccc32)CC1` (centres undefined) has a pIC50 of 4.46.
Molecule `Cc1ccccc1Nc1cc(C)c2c(O)cccc2n1` has a pIC50 of 5.19.
In the case of `CC(NCc1ccc(-c2ccccc2)cc1)C(O)c1ccccc1` (centres undefined), the pIC50 was 4.20.
Work on `O=C(N/N=C/c1cc(Br)cc(Br)c1O)c1ccncc1` yielded a pIC50 of 4.36.
`[O-][n+]1cccc2c(Br)cc(Br)c(O)c21` was tested, and the pIC50 was 4.16.
`COc1ccc(CNCCc2ccc(Cl)cc2)cc1OCc1ccccc1` showed a pIC50 of 4.18.
With `Cc1ccccc1C(=O)NNC(=S)NC(=O)COc1ccccc1` the pIC50 was 3.88.
`COc1ccc(OCc2n(CC(=O)OC3CC(C)CCC3C(C)C)c3ccccc3[n+]2C)cc1` (centres undefined) showed a pIC50 of 4.31.
In the case of `O=C(Cc1cccs1)N/N=C\c1ccc([N+](=O)[O-])s1`, the pIC50 was 4.46.
Work on `C#CCOCCOCCOCCNc1nc(N2CCN(C(=O)CCCCCCCCCCNC(=O)[C@H](CCCCN)n3cc(C)nn3)CC2)nc(N2CCN(C(=O)CCCCCCCCCCNC(=O)[C@H](CO)n3cc(CCCSC)nn3)CC2)n1` yielded a pIC50 of 3.95.
`O=C(Nc1nc(-c2ccccn2)cs1)c1ccc(Br)s1` gave a pIC50 of 4.62.
`N/C(=N\N=C/c1ccc(F)cc1)N/N=C\c1ccc(F)cc1` gave a pIC50 of 4.42.
`CC1(C)N=C(N)NC(Nc2cccc(Br)c2)=N1` showed a pIC50 of 4.46.
In the case of `NC1=NC[C@@H](Cc2ccc(O)cc2)N1CCCCC1CCCCC1`, the pIC50 was 4.86.
Work on `Cc1nonc1C(=O)N/N=C/c1ccc(O)cc1O` yielded a pIC50 of 4.48.
For `CCc1ccc(NC(=O)Nc2ccncc2)cc1`, the pIC50 was 4.15.
`CCn1cc(C(=O)O)c(=O)c2cc3c(cc21)OCO3` showed a pIC50 of 4.36.
With `CN(C)C1C(=O)C(C(N)=O)=C(O)C2(O)C(=O)C3=C(O)c4c(O)cccc4C(C)(O)C3CC12` (centres undefined) the pIC50 was 5.51.
For `O=C(CN1CC[n+]2c(-c3cccs3)csc21)c1ccc(-c2ccccc2)cc1`, the pIC50 was 4.58.
`CC1(CC(=O)N/N=C/c2cc([N+](=O)[O-])c(O)cc2O)OCCO1` was tested, and the pIC50 was 4.11.
`O=C(CCc1ccccc1)NNC(=O)c1ccccn1` was tested, and the pIC50 was 4.13.
For `CCC[C@H](CN[C@@H](CNC)[C@H](C)CC)NCCc1cc(C(F)(F)F)cc(C(F)(F)F)c1`, the pIC50 was 4.46.
`Cc1ccc(NC(=O)CN(C)C2CCCCC2)cc1Br` gave a pIC50 of 4.09.
With `Cc1nc(N)nc(N)c1CCCc1ccc(Cl)c(Cl)c1` the pIC50 was 4.44.
Work on `Cc1ccc(Nc2nc(N)c3ccccc3n2)cc1Cl` yielded a pIC50 of 4.68.
